Literature values in US20070044813A1, “Use of snuff for treatment of house dust mite allergy and/or cigarette smoke allergy” (priority 2005, published 2007).
Counter-ions that a name gives are not always drawn.

Tested on: symptoms of house dust mite allergy and cigarette smoke allergy
Details: conventional medicaments; control the symptoms only partly

Clc1ccc2c(c1)CCc1cccnc1C2=C1CCNCC1 [desloratadine]
alleviation of the symptoms: around 40%

CC(C)(C(=O)O)c1ccc(C(O)CCCN2CCC(C(O)(c3ccccc3)c3ccccc3)CC2)cc1 (centres unmarked) [fexofenadine hydrochloride]
alleviation of the symptoms: around 40%
